Measured values reported in PMC8991199, “Promiscuity mapping of the S100 protein family using a high-throughput holdup assay” (Scientific Reports, 2022).

Test: solubility by light scattering
Conditions: 20 mM HEPES, 150 mM NaCl, 2 mM CaCl2, pH 7.5, 10 nM to 1 mM, triplicates
Protocol: Foldamers were dissolved in a buffer consisting of 20 mM HEPES, 150 mM NaCl, 2 mM CaCl2, pH = 7.5 at 11 different concentrations from 10 nM to 1 mM. 100 μl samples in triplicates were pipetted into a 96-well ELISA plate and absorbance values were recorded by using FLUOstar OPTIMA plate reader at 650 nm wavelength.

NC(=O)[C@H](CCCCNC(=O)c1ccc2c(c1)C1(OC2=O)c2ccc(O)cc2Oc2cc(O)ccc21)NC(=O)CNC(=O)[C@H]1CCCC[C@@H]1NC(=O)C[C@H](Cc1c[nH]c2ccccc12)NC(=O)[C@H]1CCCC[C@@H]1NC(=O)[C@H]1CCCC[C@@H]1NC(=O)C[C@H](Cc1c[nH]c2ccccc12)NC(=O)[C@H]1CCCC[C@@H]1N [fWW]
concentration above which light scattering is increased (Fig. S2, absorbance at 650 nm): above 1 μM
concentration at which aggregation was observed (light scattering on 600 nm (text; method: absorbance at 650 nm)): 10 µM
